The test system of one assay is C57/BL6 mice. Nature of the assay: Urinary glucose excretion test in C57/BL6 mice. It is filed as in vivo. The conditions noted are these: male C57/BL6 mice, 10 mg/Kg oral; for activity in urinary glucose excretion compared with compound A (Empagliflozin): 24 h urine, statement on Table 2; for Glucose (excreted urine glucose): then 5 g/Kg glucose, total urine in 24 h, mean of 6 mice. As for the experimental part: Example 2: Urinary Glucose Excretion Test in C57/BL6 Mice
Adult male C57/BL6 mice with body weight over 20 g (Shanghai LSK Laboratory Animal Ltd) were orally dosed with test compound I (10 mg/Kg) after which the animals were fed with 5 g/Kg glucose. The animals were housed in metabolic cages to collect total urine in 24 h. The cage was washed with 5 mL of normal saline. Water and food were provided to the mice ad libitum during the 24 h period. The urine samples were immediately frozen after collection, and the glucose levels were then determined. The total amount of excreted urine glucose was calculated based on total amount of urine, and then converted to amount of excreted glucose (mg) per 200 mg body weight in 24 h based on mouse body weight. The result is shown in Table 2 (mean values of 6 mice).

The next assay has as its target T1, SGLT-2 (Homo sapiens, UniProt P31639).
T1 sequence (P31639 1-672): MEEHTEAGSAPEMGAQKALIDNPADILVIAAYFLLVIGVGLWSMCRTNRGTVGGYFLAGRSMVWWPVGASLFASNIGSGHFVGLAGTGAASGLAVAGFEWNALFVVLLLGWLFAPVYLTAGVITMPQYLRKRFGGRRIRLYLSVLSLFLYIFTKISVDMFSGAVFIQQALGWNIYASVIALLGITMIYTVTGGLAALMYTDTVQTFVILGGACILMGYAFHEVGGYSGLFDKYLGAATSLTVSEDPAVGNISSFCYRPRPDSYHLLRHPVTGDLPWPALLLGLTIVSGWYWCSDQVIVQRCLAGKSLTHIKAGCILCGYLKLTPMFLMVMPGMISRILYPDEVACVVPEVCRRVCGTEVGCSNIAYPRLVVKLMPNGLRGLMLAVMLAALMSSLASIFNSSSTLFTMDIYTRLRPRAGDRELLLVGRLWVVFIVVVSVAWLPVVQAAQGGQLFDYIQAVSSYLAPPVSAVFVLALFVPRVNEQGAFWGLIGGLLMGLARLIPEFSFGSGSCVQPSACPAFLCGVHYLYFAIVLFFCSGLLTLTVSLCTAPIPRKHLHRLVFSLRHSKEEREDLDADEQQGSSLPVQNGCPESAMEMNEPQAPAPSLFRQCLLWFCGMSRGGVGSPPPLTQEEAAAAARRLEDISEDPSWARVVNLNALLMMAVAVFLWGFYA
Nature of the assay: [14C]-AMG absorption in stable SGLT2 expressing Flp-in CHO cells (SGLT-2 activity screening assay). The class given is cell-based. The conditions noted are these: 14C-AMG uptake, 37° C. 1 h, 1% DMSO. Summed up: (§1)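 Stable Flp-in CHO cells expressing human SGLT1 or SGLT2, plated overnight, were given [14C]-AMG (2.5 μCi/mL) in Na+ buffer pH 7.4 with compound at 1% DMSO, 1 h at 37 °C. Uptake stopped with ice-cold phlorizin (0.5 mM) buffer; lysate radioactivity counted, IC50 calculated.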

For another assay, the target named is T2, SGLT-1 (Homo sapiens, UniProt P13866).
T2 sequence (P13866 1-664): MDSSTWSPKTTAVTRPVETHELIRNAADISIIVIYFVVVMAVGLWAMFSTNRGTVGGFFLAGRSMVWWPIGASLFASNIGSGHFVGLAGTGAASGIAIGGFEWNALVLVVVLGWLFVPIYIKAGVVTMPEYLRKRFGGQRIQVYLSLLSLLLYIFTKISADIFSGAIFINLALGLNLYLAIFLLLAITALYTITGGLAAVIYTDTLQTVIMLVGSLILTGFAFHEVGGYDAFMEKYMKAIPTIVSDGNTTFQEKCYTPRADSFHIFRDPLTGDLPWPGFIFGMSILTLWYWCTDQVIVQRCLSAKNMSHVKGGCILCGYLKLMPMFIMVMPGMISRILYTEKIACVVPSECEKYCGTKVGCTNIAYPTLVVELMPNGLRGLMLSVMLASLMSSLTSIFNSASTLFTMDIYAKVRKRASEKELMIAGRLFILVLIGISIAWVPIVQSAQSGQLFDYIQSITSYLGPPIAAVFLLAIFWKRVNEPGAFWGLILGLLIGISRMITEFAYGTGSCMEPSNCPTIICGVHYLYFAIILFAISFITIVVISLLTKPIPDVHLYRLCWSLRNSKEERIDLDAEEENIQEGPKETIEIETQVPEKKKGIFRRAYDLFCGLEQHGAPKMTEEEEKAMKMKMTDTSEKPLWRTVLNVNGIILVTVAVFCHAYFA
Nature of the assay: [14C]-AMG absorption in stable SGLT1 expressing Flp-in CHO cells (SGLT-1 activity screening assay). The class given is cell-based. The conditions noted are these: 14C-AMG uptake, 37° C. 1 h, 1% DMSO. A digest of the protocol:
as §1

Molecules are shown by their SMILES.

The term IC50 denotes the point on the concentration scale where inhibition reaches its midpoint. The low end stands for greater potency in that assay, the high end for weaker potency in that assay. In the case of `OC[C@H]1O[C@@H](c2ccc(Cl)c(Cc3ccc(OCC4Cc5ccccc5O4)cc3)c2)[C@H](O)[C@@H](O)[C@@H]1O` (stereo partly drawn) [Compound I-22, (2S,3R,4R,5S,6R)-2-(4-chloro-3-(4-((2,3-dihydrobenzofuran-2-yl)methoxy)benzyl)phenyl)-6-(hydroxymethyl)tetrahydro-2H-pyran-3,4,5-triol], in the assay on C57/BL6 mice, the “activity in urinary glucose excretion compared with compound A (Empagliflozin)” value was “significantly more active than compound A” and the “Glucose (excreted urine glucose)” value is reported as 3106.6 mg/200 mg body weight/24 h. Also, the IC50 at SGLT-2 was 4.1 nM. Moreover, the half-inhibitory concentration (IC50) at SGLT-1 worked out at 2100 nM.
Consider `OC[C@H]1O[C@@H](c2ccc(Cl)c(Cc3ccc(O[C@H]4CCOC4)cc3)c2)[C@H](O)[C@@H](O)[C@@H]1O` [A, Empagliflozin, reference compound], for which the “Glucose (excreted urine glucose)” value with C57/BL6 mice is recorded as 1536.5 mg/200 mg body weight/24 h. Also, the IC50 at SGLT-2 was 6.6 nM.
`OC[C@H]1O[C@@H](c2ccc(Cl)c(Cc3ccc(OCc4cc5ccccc5o4)cc3)c2)[C@H](O)[C@@H](O)[C@@H]1O` [Compound I-1, (2S,3R,4R,5S,6R)-2-(3-(4-(benzofuran-2-ylmethoxy)benzyl)-4-chlorophenyl)-6-(hydroxymethyl)tetrahydro-2H-pyran-3,4,5-triol]: in the assay with C57/BL6 mice, the “activity in urinary glucose excretion compared with compound A (Empagliflozin)” value is “significantly more active than compound A” and the “Glucose (excreted urine glucose)” value is listed as 1646.9 mg/200 mg body weight/24 h. The same compound returned an IC50 against SGLT-2 of 7 nM.
Turning to `OC[C@H]1O[C@@H](c2ccc(F)c(Cc3ccc(OCc4cc5ccccc5o4)cc3)c2)[C@H](O)[C@@H](O)[C@@H]1O` [Compound I-2, (2S,3R,4R,5S,6R)-2-(3-(4-(benzofuran-2-ylmethoxy)benzyl)-4-fluorophenyl)-6-(hydroxymethyl)tetrahydro-2H-pyran-3,4,5-triol], the values for the IC50 against SGLT-2 and against SGLT-1 were 15 nM and 2540 nM, respectively.
With `OC[C@H]1O[C@@H](c2ccc(Cl)c(Cc3ccc(OCC4Cc5cc(F)ccc5O4)cc3)c2)[C@H](O)[C@@H](O)[C@@H]1O` (stereo partly drawn) [Compound I-32, (2S,3R,4R,5S,6R)-2-(4-chloro-3-(4-((5-fluoro-2,3-dihydrobenzofuran-2-yl)methoxy)benzyl)phenyl)-6-(hydroxymethyl)tetrahydro-2H-pyran-3,4,5-triol], the values for the IC50 against SGLT-2 and against SGLT-1 were 6.7 nM and 472 nM, respectively.
On to `CC1(COc2ccc(Cc3cc([C@@H]4O[C@H](CO)[C@@H](O)[C@H](O)[C@H]4O)ccc3Cl)cc2)OCc2ccccc21` (single isomer, unassigned) [Compound I-115], for which the IC50 against SGLT-2 was determined as 12.7 nM; on SGLT-1, 725 nM.
In the case of `CC1(COc2ccc(Cc3cc([C@@H]4O[C@H](CO)[C@@H](O)[C@H](O)[C@H]4O)ccc3Cl)cc2)OCc2ccccc21` (stereo partly drawn) [Compound I-108, (2S,3R,4R,5S,6R)-2-(4-chloro-3-(4-((1-methyl-1,3-dihydroisobenzofuran-1-yl)methoxy)benzyl)phenyl)-6-(hydroxymethyl)tetrahydro-2H-pyran-3,4,5-triol], the IC50 on SGLT-2 amounted to 10.2 nM; against SGLT-1, 1810 nM.
In the case of `OC[C@H]1O[C@@H](c2ccc(Cl)c(Cc3ccc(OCc4cc5ccccc5o4)c(F)c3)c2)[C@H](O)[C@@H](O)[C@@H]1O` [Compound I-11, (2S,3R,4R,5S,6R)-2-(3-(4-(benzofuran-2-ylmethoxy)-3-fluorobenzyl)-4-chlorophenyl)-6-(hydroxymethyl)tetrahydro-2H-pyran-3,4,5-triol], the half-maximal inhibitory concentration (IC50) at SGLT-2 stood at 23 nM; on SGLT-1, 2540 nM.
As to `Cc1ccc([C@@H]2O[C@H](CO)[C@@H](O)[C@H](O)[C@H]2O)cc1Cc1ccc(OCC2Cc3ccccc3O2)cc1` (single isomer, unassigned) [Compound I-27], the 50% inhibitory concentration (IC50) stood at 4.3 nM against SGLT-2 and 396 nM on SGLT-1.
Consider `Cc1ccc([C@@H]2O[C@H](CO)[C@@H](O)[C@H](O)[C@H]2O)cc1Cc1ccc(OCC2OCc3ccccc32)cc1` (stereo partly drawn) [Compound I-43, (2S,3R,4R,5S,6R)-2-(3-(4-((1,3-dihydroisobenzofuran-1-yl)methoxy)benzyl)-4-methylphenyl)-6-(hydroxymethyl)tetrahydro-2H-pyran-3,4,5-triol], for which the IC50 at SGLT-2 was found to be 1.7 nM; against SGLT-1 it was 322 nM.
For `OC[C@H]1O[C@@H](c2ccc(Cl)c(Cc3ccc(OCc4cc5cc(F)ccc5o4)cc3)c2)[C@H](O)[C@@H](O)[C@@H]1O` [Compound I-8, (2S,3R,4R,5S,6R)-2-(4-chloro-3-(4-((5-fluorobenzofuran-2-yl)methoxy)benzyl)phenyl)-6-(hydroxymethyl)tetrahydro-2H-pyran-3,4,5-triol], the values for the concentration for half-maximal inhibition (IC50) against SGLT-2 and against SGLT-1 were 25 nM and 1440 nM, respectively.
Regarding `OC[C@H]1O[C@@H](c2ccc(Cl)c(Cc3ccc(OCC4OCc5ccccc54)cc3)c2)[C@H](O)[C@@H](O)[C@@H]1O` (stereo partly drawn) [Compound I-36, (2S,3R,4R,5S,6R)-2-(4-chloro-3-(4-((1,3-dihydroisobenzofuran-1-yl)methoxy)benzyl)phenyl)-6-(hydroxymethyl)tetrahydro-2H-pyran-3,4,5-triol], the “Glucose (excreted urine glucose)” value with C57/BL6 mice is reported as 1723.1 mg/200 mg body weight/24 h. Besides, the figures for the IC50 against SGLT-2 and on SGLT-1 were 1 nM and 584 nM, respectively.
As for `Cc1ccc([C@@H]2O[C@H](CO)[C@@H](O)[C@H](O)[C@H]2O)cc1Cc1ccc(-c2ccc(F)cc2)s1` [B, Canagliflozin, reference compound], the figures for the IC50 on SGLT-2 and on SGLT-1 were 4.6 nM and 287 nM, respectively.
